Each structure is given as a SMILES string. Where a SMILES comes first, the peptide text is derived from it. [ ]: non-standard residue; d: D form. The star is where a group is joined. O(cholesteryl) = CC(C)CCC[C@@H](C)[C@H]1CC[C@H]2[C@@H]3CC=C4C[C@@H](O*)CC[C@]4(C)[C@H]3CC[C@]12C; PEG24 = NCCOCCOCCOCCOCCOCCOCCOCCOCCOCCOCCOCCOCCOCCOCCOCCOCCOCCOCCOCCOCCOCCOCCOCCOCCC(=O)O

The test system of series [1] is MT2. Briefly: Cytotoxicity against human MT2 cells upto 10 uM incubated for 48 hrs by CCK-8 assay. As to conditions: mt2, 48 h. It is filed as toxicity, cell-based.
Series [2] relates to Human immunodeficiency virus 1. Briefly: Binding affinity to HIV1 gp41 NHR target surrogate N36 assessed as melting temperature at 10 uM incubated for 30 mins by CD spectroscopy.
Series [3] relates to Human immunodeficiency virus 1. Briefly: Binding affinity to HIV1 gp41 NHR target surrogate T21 assessed as sedimentation coefficient incubated for 30 mins measured for 0.16 to 7 hrs by Sedimentation velocity analysis. As to conditions: time 0.56-7.5 hrs.
Series [4] concerns Human immunodeficiency virus 1. Briefly: Antiviral activity against T20-sensitive HIV-1 D36G assessed as inhibition of viral replication measured after 4 days by ELISA. It is filed as functional, organism-based. A general note: An ELISA detects its analyte on a solid surface through an enzyme-linked reagent.
Series [5] can be described thus: Selectivity ratio of EC50 for antiviral activity against T20-resistant HIV-1 V38E/N42S to EC50 for antiviral activity against T20-sensitive HIV-1 D36G. It is filed as functional.
Series [6] can be described thus: Selectivity ratio of EC50 for antiviral activity against T20-resistant HIV-1 V38A/N42T to EC50 for antiviral activity against T20-sensitive HIV-1 D36G. It is filed as functional.
Series [7] concerns Human immunodeficiency virus 1. Description: Antiviral activity against T20-resistant HIV-1 V38A/N42T assessed as inhibition of viral replication measured after 4 days by ELISA. It is filed as functional, organism-based.
In series [8] the test system is Human immunodeficiency virus 1. Description: Binding affinity to HIV1 gp41 NHR target surrogate N36 assessed as alpha-helicity at 10 uM incubated for 30 mins by CD spectroscopy (reference value: 26 %).
For series [9], the system named is Human immunodeficiency virus 1. Description: Antiviral activity against T20-resistant HIV-1 V38E/N42S assessed as inhibition of viral replication measured after 4 days by ELISA. It is filed as functional, organism-based.
Series [10] relates to Human immunodeficiency virus 1. Briefly: Inhibition of HIV-1 replication assessed as inhibition of gp41 six-helix bundle formation between T21 and CP32 incubated for 30 mins followed by CP32 addition measured after 30 mins by N-PAGE analysis. It is filed as functional. Conditions: dose <= 120.0 µM, time 1.0 hrs, DDE = dose-dependent effect.
In series [11] the test system is Human immunodeficiency virus 1. Briefly: Antiviral activity against HIV-1 IIIB assessed as inhibition of viral replication measured after 4 days by ELISA. It is filed as functional, organism-based. Conditions: Human immunodeficiency virus 1, IIIB, 96 h.
Series [12] in a line: Cytotoxicity against human CEMx174 5.25M7 cells upto 10 uM incubated for 48 hrs by CCK-8 assay. Conditions: cemx174 5.25m7, 48 h. It is filed as toxicity, cell-based. For orientation: Formazan colour is commonly taken as a measure of viable cells.
Series [13] is described as follows: Alpha-helicity of compound in PBS buffer at pH 7.4 at 10 uM incubated for 30 mins by CD spectroscopy relative to control. It is filed as physicochemical. Conditions: pH 7.4, 0.5 h.
In series [14] the test system is Human immunodeficiency virus 1. Briefly: Binding affinity to HIV1 gp41 NHR target surrogate T21 assessed as melting temperature at 10 uM incubated for 30 mins by CD spectroscopy.
Series [15] has as its system Human immunodeficiency virus 1. Description: Binding affinity to HIV1 gp41 NHR target surrogate T21 assessed as alpha-helicity at 10 uM incubated for 30 mins by CD spectroscopy (reference value: 66 %).

Usually EC50 stands for the concentration at which the effect is half-maximal. For the compound `CC[C@H](C)[C@H](NC(=O)[C@H](CCC(N)=O)NC(=O)[C@H](CCC(=O)O)NC(=O)[C@H](CCC(=O)O)NC(=O)[C@@H](NC(=O)[C@H](CCCCN)NC(=O)[C@H](CCCCN)NC(=O)[C@@H](NC(=O)[C@H](CC(C)C)NC(=O)[C@H](CCC(=O)O)NC(=O)[C@H](CCC(=O)O)NC(=O)[C@H](CO)NC(=O)[C@H](CCCCN)NC(=O)[C@H](CCCCN)NC(=O)[C@@H](NC(=O)[C@H](CC(C)C)NC(=O)[C@H](CCC(=O)O)NC(=O)[C@H](CCC(=O)O)NC(=O)[C@@H](NC(=O)[C@H](CCCCN)NC(=O)[C@H](CCCCN)NC(=O)[C@H](CO)NC(=O)[C@H](Cc1c[nH]c2ccccc12)NC(=O)[C@H](CCC(=O)O)NC(=O)[C@H](CCC(=O)O)NC(=O)[C@H](Cc1c[nH]c2ccccc12)NC(=O)[C@H](CCCCN)NC(=O)[C@H](CCCCN)NC(=O)[C@@H](NC(=O)[C@H](CO)NC(=O)[C@H](CCC(=O)O)NC(=O)[C@H](CCC(=O)O)NC(=O)[C@H](CCC(N)=O)NC(C)=O)[C@@H](C)CC)[C@@H](C)CC)[C@@H](C)CC)[C@@H](C)CC)[C@@H](C)CC)C(=O)N[C@@H](CCCCN)C(=O)N[C@@H](CCCCN)C(=O)NCCOCCOCCOCCOCCOCCOCCOCCOCCOCCOCCOCCOCCOCCOCCOCCOCCOCCOCCOCCOCCOCCOCCOCCOCCC(=O)N[C@@H](CS)C(=O)O[C@H]1CC[C@@]2(C)C(=CC[C@H]3[C@@H]4CC[C@H]([C@H](C)CCCC(C)C)[C@@]4(C)CC[C@@H]32)C1` (Ac-QEESIKKWEEWSKKIEELIKKSEELIKKIEEQIKK[PEG24]C-{O(cholesteryl)}), the Activity result in series [1] is “Non-Toxic”; in series [8] it was 81%; in [12], “Non-Toxic”; in series [13], 56%; in [15], 94%. The Tm in series [2] is 50 °C; in [14], 68 °C. For the same compound, the S20,w in [3] turned out to be 2.43 S. Further, the EC50 in series [4] was 1.62 nM; in [7] it was 2.38 nM; in series [9], 5.07 nM; in [11] it was 5.21 nM. For the same compound, the “Ratio EC50” value in series [5] is 3.1; in [6], 1.5. For the same compound, in series [10], the inhibition result is “Dde”.

The values are drawn from ChEMBL document CHEMBL5131511, “Design of artificial α-helical peptides targeting both gp41 deep pocket and subpocket as potent HIV-1 fusion inhibitors” (Eur J Med Chem, 2022).
